In patent US9446048B2, “Methods for treating leukemia and disorders mediated by CBFβ and RUNX1 proteins” (The United States of America, as represented by the …, priority 2011, dated 2016):

Columns and labels:
zebrafish embryos = test: Blockage of zebrafish embryonic definitive hematopoiesis (cd41-GFP / lck-GFP transgenic embryos); assay type: in vivo, zebrafish (Danio rerio); details: for numbers of cd41-GFP cells in embryos: FIG. 4C, cd41-GFP transgenic embryos; for definitive hematopoiesis in zebrafish embryos: compounds added to water at 24 hours post fertilization, cd41-GFP or lck-GFP embryos
Description: Candidate compounds were tested in a zebrafish model to determine if they specifically block RUNX1-CBFβ interaction. RUNX1 and CBFβ are required for definitive hematopoiesis during embryogenesis, since RUNX1 and CBFβ knockout mouse embryos are devoid of definitive blood cells. Thus, inhibitors of RUNX1 and CBFβ should also be able to block definitive hematopoiesis as well. Standard protocols were used to breed and raise embryos from the cd41-GFP transgenic fish in which GFP marks hematopoietic stem cells, in addition to thrombocytes during embryogenesis, and from the lck-GFP transgenic fish in which GFP marks the T lineage cells. (See Westerfield M, ed The Zebrafish Book, A guide for the laboratory use of zebrafish (Danio rerio). Edition 3 ed. Eugene, Oreg.: University of Oregon Press; 1995; Lin et al. Analysis of thrombocyte development in CD41-GFP transgenic zebrafish. Blood. Dec. 1, 2005; 106(12):3803-3810; Bertrand et al. CD41+ cmyb+ precursors colonize the zebrafish pronephros by a novel migration route to initiate adult hematopoiesis. Development. May 2008; 135(10):1853-1862; Bertrand et al. Definitive hematopoiesis initiates through a committed erythromyeloid progenitor in the zebrafish embryo. Development. December 2007; 134(23):4147-4156; Kissa et al. Live imaging of emerging hematopoietic stem cells and early thymus colonization. Blood. Feb. 1, 2008; 111(3):1147-1156; Langenau et al. In vivo tracking of T cell development, ablation, and engraftment in transgenic zebrafish. Proc Natl Acad Sci USA. May 11, 2004; 101(19):7369-7374). Compounds were added to the water at 24 hours post fertilization and the final DMSO concentrations were less than 0.1%. The embryos were then observed, photographed, and videotaped with a Leica MZ16F dissecting scope, equipped with a Leica DC500 camera and a BioVision Vision-Mac™ video system. The numbers of GFP+ cells in each embryo were counted manually.

RUNX1-CBFβ binding = biological target: T1, RUNX1-CBFβ binding (Homo sapiens, UniProt Q01196+Q13951); test: AlphaScreen high-throughput screen for blocking RUNX1-CBFβ interaction; details: HTS for RUNX1-CBFβ interaction inhibitors
T1 construct: The full length biotinylated RUNX1, histagged CBFβ and untagged CBFβ proteins were purchased; biotin (biotinylated); purchased Genecopoeia (Germantown, Md.); host or cells: wheat germ extract cell-free protein translation system
Description: An Amplified Luminescence Proximity Homogenous Assay (ALPHA) Screen format (PerkinElmer) was used to develop an assay for identifying compounds that affect RUNX1-CBFβ binding (see FIG. 3) optimized for high throughput screening (HTS). The full length biotinylated RUNX1, histagged CBFβ and untagged CBFβ proteins were purchased from Genecopoeia (Germantown, Md.) that were prepared in a wheat germ extract cell-free protein translation system. All three proteins were purified using an affinity column and FPLC chromatography. The assay buffer was comprised of 25 mM HEPES (pH 7.4), 110 mM KC1, 2 mM MgCl2, 10 mM NaCl, 5 mM DTT, and 0.01% Tween-20. The AlphaScreen assay platform (PerkinElmer) was applied for the measurement of interaction of Runx1 protein with the CBFb protein. The assay was developed in 384-well plate format and optimized in 1536-well plate format for high throughput screening. […] The assay plate was measured in an AlphaScreen mode using an Envision plate reader (Perkin Elmer, Waltham, Mass.). […]
Synthesized, tagged RUNX1 and CBFβ were used in the assay and a total of over 240,000 compounds at 7 concentrations each were screened with this assay. […] Confirmatory ALPHA and HTRF (homogeneous time resolved fluorescence) assays were performed to prioritize compounds for their ability to inhibit RUNX1-CBFβ interaction.

[1] = system: leukemia cells with CBF fusion genes; test: Selective cytotoxicity for CBF leukemia cell lines (ATPlite cellular ATP content); assay type: cell-based; details: 24 hours; for killing of leukemia cells with CBF fusion genes versus without: ATP content
Description: FIG. 5 depicts the results of treating leukemia cells with or without CBF fusion genes with Ro5-3335. […] The cellular ATP content was measured by a luciferase based viability assay with −100% as 100% cell killing.
Cell lines including HeLa, HL-60, Kasumi-1, Kasumi-6, ME-1, RS4 and REH were obtained from American Type Culture Collection (ATCC, Manassas, Va.). Cells in suspension at a density of 100,000 cells/ml were grown in a T175 flask with 20% FBS RPMI-1640 medium except 20% FBS IMDM medium for HL-60 cell line and the medium was renewed every 2-3 days. The cells were centrifuged and resuspended in 10% FBS phenol free OPTI-MEM medium which were seeded at 500 cells/well in 5 uL in 1536-well white solid-bottom plates using a Multidrop Combi dispenser (ThermoFisher Scientific Inc., Waltham, Mass.). The assay plates were incubated at 37° C. with 5% CO2 and 95% humidity for 2 hours prior to compound addition. Subsequently, 23 nL/well compound DMSO solutions or DMSO controls were transferred to the assay plates using a Kalypsys pintool workstation (Kalypsys, San Diego, Calif.). The plates were then incubated at 37° C. with 5% CO2 and 95% humidity for 24 hours followed by an addition of 4 uL/well of ATPlite reagent (PerkinElmer). After a 20 minute incubation, the plates were measured in the luminescence mode using a ViewLux plate reader (Perkinelmer, Waltham, Mass.).

[2] = system: CBF leukemia cells (CBFB-MYH11); test: Leukemia transplantation murine model (Cbfb-MYH11 knock-in leukemia cells); assay type: in vivo, mouse; details: for leukemia burden in mice: 300 mg/kg/day in transgenic dough, similar efficacy as standard chemotherapy drugs; for survival of leukemic mice, combination with cytarabine: 300 mg/kg/p.o. days 10-40 plus cytarabine days 10-15
Description: Compound Ro5-3335 was tested in a CBFβ-MYH11 knock-in mouse model that faithfully models human leukemia with this fusion gene. The mouse model is described in Castilla et al, Failure of embryonic hematopoiesis and lethal hemorrhages in mouse embryos heterozygous for a knocked-in leukemia gene CBFB-MYH11. Cell. 1996; 87(4):687-696; Castilla et al., The fusion gene Cbfb-MYH11 blocks myeloid differentiation and predisposes mice to acute myelomonocytic leukemia. Nat. Genet. October 1999; 23[2]:144-146. The CBFB-MYH11 fusion gene in this mouse model initiates leukemia development with high penetrance but variable latency. However, when the leukemia cells are transplanted, the recipient mice develop leukemia with very short, consistent latency and 100% penetrance.
The B6129F1/J mice were used for injection of leukemia cells developed in the Cbfb-MYH11 knock-in mice. The recipient mice were irradiated at 900 rads before the leukemia cells were given through retro-orbital vein injection, typically at around 250,000-500,000 cells/mouse. Ten days after leukemia cell injection, the mice were given the candidate compounds Ro5-3335 and Ro24-7429 in transgenic dough, at 300 mg/kg/day for up to 30 days. Cytarabine was given for 6 consecutive days starting on day 10 after transplantation, at 100 mg/kg/day IP, and doxorubicin was given for 4 consecutive days starting on day 10 after transplantation, at 3 mg/kg/day IP. The mice were followed by daily inspection and bi-weekly analysis of peripheral blood, which was collected by retro-orbital bleeding. Leukemia cells in the peripheral blood were evaluated by FACS analysis and by blood smear observation. Moribund mice were sacrificed and necropsy conducted to ascertain the diagnosis of terminal leukemia.

[3] = was reported; cited from earlier work

T1 sequence (Q01196 whole entry): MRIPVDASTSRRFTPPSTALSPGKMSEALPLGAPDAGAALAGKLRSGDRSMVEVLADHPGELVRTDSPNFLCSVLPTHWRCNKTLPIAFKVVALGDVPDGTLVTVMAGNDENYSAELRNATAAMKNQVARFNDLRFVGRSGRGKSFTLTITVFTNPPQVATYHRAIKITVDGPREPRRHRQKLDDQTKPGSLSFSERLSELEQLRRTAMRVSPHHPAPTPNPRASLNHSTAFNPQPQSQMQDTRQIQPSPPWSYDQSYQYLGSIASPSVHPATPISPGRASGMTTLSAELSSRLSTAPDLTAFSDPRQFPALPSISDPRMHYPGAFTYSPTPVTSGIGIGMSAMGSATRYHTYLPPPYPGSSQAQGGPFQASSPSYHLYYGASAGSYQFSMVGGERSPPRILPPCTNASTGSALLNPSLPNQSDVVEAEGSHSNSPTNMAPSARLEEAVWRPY
T1 sequence (Q13951 whole entry): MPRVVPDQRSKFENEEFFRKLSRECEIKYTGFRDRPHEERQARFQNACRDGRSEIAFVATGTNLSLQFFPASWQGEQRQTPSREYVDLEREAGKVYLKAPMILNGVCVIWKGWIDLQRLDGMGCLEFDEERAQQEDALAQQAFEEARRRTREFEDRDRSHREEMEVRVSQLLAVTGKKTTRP

SMILES	numbers of cd41-GFP cells in embryos (zebrafish embryos)	definitive hematopoiesis in zebrafish embryos (zebrafish embryos)	definitive hematopoiesis in zebrafish embryos (zebrafish embryos; listed as J1)	activity in the original screening (RUNX1-CBFβ binding)	killing of leukemia cells with CBF fusion genes versus without [1]	leukemia burden in mice [2]	survival of leukemic mice, combination with cytarabine [2]	leukemia cell burden (c-kit+ cells) ([2]; FIG. 9, 10 days after treatments started)	definitive hematopoiesis in zebrafish embryos (zebrafish embryos; listed as J2)	cell killing potency for CBF leukemia cell lines relative to leukemia cell lines without CBF fusion genes ([1]; ATP content IC50 comparison)	toxicological profile relative to Ro5-3335 [3]	definitive hematopoiesis in zebrafish embryos (zebrafish embryos; listed as J8)	survival of leukemic mice, single agent ([2]; second experiment, cytarabine on days 10-15)
NCC(=O)Nc1ccc(Cl)cc1C(=O)c1ccc[nH]1 [MLS000766105, 2-amino-N-[4-chloro-2-(1H-pyrrole-2-carbonyl)phenyl]acetamide]	reduced numbers	significant reduction	reduce definitive hematopoiesis	active	preferentially killed	–	–	–	–	–	–	–	–
O=C1CN=C(c2ccc[nH]2)c2cc(Cl)ccc2N1 [Ro5-3335, 7-chloro-5-(1H-pyrrol-2-yl)-1,3,-dihydro-1,4-benzodiaepin-2-one]	reduced numbers	significant reduction	–	–	preferentially killed	significantly reduced	synergy	reduced leukemia cell burden	reduce definitive hematopoiesis	6-50 fold	–	–	–
CNC1=Nc2ccc(Cl)cc2C(c2ccc[nH]2)=NC1 [Ro24-7429, 7-chloro-N-methyl-5-1(1H-pyrrol-2-yl)-3H-1,4-benzodiazepin-2-amine]	reduced numbers	significant reduction	–	–	–	significantly reduced	trend of synergy	–	–	–	improved toxicological profile	reduce definitive hematopoiesis	–
Nc1ccn([C@@H]2O[C@H](CO)[C@@H](O)[C@@H]2O)c(=O)n1 [cytarabine, reference compound]	–	–	–	–	–	–	–	–	–	–	–	–	failed to extend survival
